Reference: patent US3939143A, “1-N-isoserylkanamycins and the production thereof” (Zaidan Hojin Biseibutsu Kagaku Kenkyu Kai, priority 1973, dated 1976)
Like-named read-outs stand apart in the source and are kept apart here.

Key:
[1] = tested on: Bacillus cereus ATCC 10702; assay: Minimum inhibitory concentration, serial dilution on nutrient agar; type: cell-based; details: ATCC10702, 37°C, 18 hours, read-out: Minimum Inhibitory Concentration
[2] = tested on: Klebsiella pneumoniae PCI 602; assay: as above; type: cell-based; details: PCI602, 37°C, 18 hours, read-out: Minimum Inhibitory Concentration
[3] = tested on: drug-resistant strains of Escherichia coli and Pseudomonas aeruginosa; assay: antibacterial activity against drug-resistant strains, in words; type: cell-based
[4] = tested on: Escherichia coli W677; assay: Minimum inhibitory concentration, serial dilution on nutrient agar; type: cell-based; details: W677, 37°C, 18 hours, read-out: Minimum Inhibitory Concentration
[5] = tested on: Salmonella enteritidis 1891; assay: as above; type: cell-based; details: Salmonella enterica, 37°C, 18 hours, read-out: Minimum Inhibitory Concentration
[6] = tested on: Pseudomonas aeruginosa GN315; assay: as above; type: cell-based; details: GN315, 37°C, 18 hours, read-out: Minimum Inhibitory Concentration
[7] = tested on: Escherichia coli K-12 ML 1410; assay: as above; type: cell-based; details: read-out: Minimum Inhibitory Concentration
[8] = tested on: Pseudomonas aeruginosa 99; assay: as above; type: cell-based; details: read-out: Minimum Inhibitory Concentration
[9] = tested on: Escherichia coli LA290 R64; assay: as above; type: cell-based; details: LA290R64, 18 h, read-out: Minimum Inhibitory Concentration
[10] = tested on: Salmonella typhosa T-63; assay: as above; type: cell-based; details: Salmonella enterica, 18 h, read-out: Minimum Inhibitory Concentration
[11] = tested on: Staphylococcus aureus FDA 209P; assay: as above; type: cell-based; details: FDA209P, 37°C, 18 hours, read-out: Minimum Inhibitory Concentration
[12] = acute toxicity upon intravenous injection in mice; type: in vivo; details: mouse, in vivo; intravenous injection, mice
[13] = tested on: Escherichia coli K-12 ML 1629; assay: Minimum inhibitory concentration, serial dilution on nutrient agar; type: cell-based; details: read-out: Minimum Inhibitory Concentration
[14] = tested on: Proteus vulgaris OX 19; assay: as above; type: cell-based; details: OX19, 37°C, 18 hours, read-out: Minimum Inhibitory Concentration
[15] = tested on: Staphylococcus aureus Terajima; assay: as above; type: cell-based; details: 37°C, 18 hours, read-out: Minimum Inhibitory Concentration
[16] = tested on: Bacillus anthracis; assay: microbe, parasite or virus in culture; type: cell-based; details: 18 h, read-out: Minimum Inhibitory Concentration
[17] = tested on: Escherichia coli K-12; assay: Minimum inhibitory concentration, serial dilution on nutrient agar; type: cell-based; details: K12, 37°C, 18 hours, read-out: Minimum Inhibitory Concentration
[18] = tested on: gram-negative and gram-positive bacteria; assay: antibacterial activity, in words; type: cell-based; details: gram-negative and gram-positive bacteria sensitive to kanamycins
Procedure: (§1) The minimum inhibitory concentrations (mcg/ml) of 1-N-DL-isoserylkanamycin,1-N-DL-isoserylkanamycin B and 1-N-DL-isoseryl-3',4'-dideoxykanamycin B against various microorganisms were determined according to the serial dilution method using nutrient agar medium at 37°C, the estimation being effected after 18 hours incubation. For comparison purposes, the minimum inhibitory concentrations of kanamycin, kanamycin B and 3',4'-dideoxykanamycin B were also determined in the same manner and under the same conditions as mentioned above.
(§2) The antibacterial spectra of 1-N-DL-isoseryl-kanamycin (abbreviated as 1-IS-KM), 1-N-DL-isoseryl-kanamycin B (abbreviated as 1-IS-KMB) and 1-N-DL-isoseryl-3',4'-dideoxykanamycin B (abbreviated as 1-IS-DKB) are shown in the following table together with those of kanamycin (abbreviatedas KM), kanamycin B (abbreviated as KMB) and 3',4'-dideoxykanamycin B (abbreviated as DKB).

[19] = tested on: Klebsiella pneumoniae 22 No. 3038; assay: Minimum inhibitory concentration, serial dilution on nutrient agar; type: cell-based; details: read-out: Minimum Inhibitory Concentration
[20] = tested on: Mycobacterium smegmatis ATCC 607; assay: as above; type: cell-based; details: Mycolicibacterium smegmatis, ATCC607; 37°C, 18 hours; read-out: Minimum Inhibitory Concentration
[21] = tested on: Escherichia coli LA290 R55; assay: as above; type: cell-based; details: LA290R55, 18 h, read-out: Minimum Inhibitory Concentration
[22] = tested on: Pseudomonas aeruginosa No.12; assay: as above; type: cell-based; details: NO.12, 37°C, 18 hours, read-out: Minimum Inhibitory Concentration
[23] = tested on: Corynebacterium bovis 1810; assay: as above; type: cell-based; details: read-out: Minimum Inhibitory Concentration
[24] = tested on: Escherichia coli JR66/W677; assay: as above; type: cell-based; details: JR66/W677, 18 h, read-out: Minimum Inhibitory Concentration
[25] = tested on: Escherichia coli NIHJ; assay: as above; type: cell-based; details: read-out: Minimum Inhibitory Concentration
[26] = tested on: Sarcina lutea PCI 1001; assay: as above; type: cell-based; details: Micrococcus luteus, PCI1001; 37°C, 18 hours; read-out: Minimum Inhibitory Concentration
[27] = tested on: Staphylococcus aureus Smith; assay: as above; type: cell-based; details: 37°C, 18 hours, read-out: Minimum Inhibitory Concentration
[28] = tested on: Escherichia coli LA290 R56; assay: as above; type: cell-based; details: LA290R56, 18 h, read-out: Minimum Inhibitory Concentration
[29] = tested on: Bacillus subtilis PCI 219; assay: as above; type: cell-based; details: PCI219, 37°C, 18 hours, read-out: Minimum Inhibitory Concentration
[30] = tested on: Escherichia coli K-12 ML 1630; assay: as above; type: cell-based; details: K12ML1630, 37°C, 18 hours
Procedure: as §1, §2

[31] = tested on: Shigella flexneri 4b JS 11811; assay: as above; type: cell-based; details: 4BJS11811, 37°C, 18 hours
Procedure: as §1, §2

[32] = tested on: Shigella sonnei JS 11746; assay: as above; type: cell-based; details: JS11746, 37°C, 18 hours
Procedure: as §1, §2

[33] = tested on: Pseudomonas aeruginosa TI-13; assay: as above; type: cell-based; details: TI13, 37°C, 18 hours
Procedure: as §1, §2

[34] = tested on: Pseudomonas aeruginosa A3; assay: as above; type: cell-based; details: 37°C, 18 hours
Procedure: as §1, §2

[35] = tested on: Bacillus subtilis NRRL B-558; assay: as above; type: cell-based; details: NRRLB558, 37°C, 18 hours, read-out: Minimum Inhibitory Concentration
[36] = tested on: Shigella dysenteriae JS 11910; assay: as above; type: cell-based; details: JS11910, 18 h, read-out: Minimum Inhibitory Concentration
[37] = tested on: Escherichia coli K-12 ML 1410 R81; assay: as above; type: cell-based; details: 18 h, read-out: Minimum Inhibitory Concentration

Row | SMILES | MIC [1] [µg/mL] | MIC [2] [µg/mL] | antibacterial activity [3] | MIC [4] [µg/mL] | MIC [5] [µg/mL] | MIC [6] [µg/mL] | MIC [9] [µg/mL] | MIC [10] [µg/mL] | MIC [11] [µg/mL] | LD50 [12] [mg/kg] | MIC [14] [µg/mL] | MIC [15] [µg/mL] | MIC [16] [µg/mL] | MIC [17] [µg/mL] | antibacterial activity [18] | MIC [20] [µg/mL] | MIC [21] [µg/mL] | MIC [22] [µg/mL] | MIC [24] [µg/mL] | MIC [26] [µg/mL] | further results
1 | NCC(O)C(=O)N[C@@H]1C[C@H](N)[C@@H](O[C@H]2O[C@H](CN)CC[C@H]2N)[C@H](O)[C@H]1O[C@H]1O[C@H](CO)[C@@H](O)[C@H](N)[C@H]1O (mixture of isomers) [1-IS-DKB, 1-N-DL-isoseryl-3',4'-dideoxykanamycin B] | 1.56 | 0.39 | high antibacterial activity | 0.78 | 0.39 | 12.5 | 0.39 | 0.78 | 0.78 | > 100 | 0.2 | < 0.2 | < 0.2 | 1.56 | high antibacterial activity | < 0.2 | 1.56 | 1.56 | 3.13 | 1.56 | MIC ([7]; K12ML1410, 37°C, 18 hours): 1.56 µg/mL; MIC ([8]; Pseudomonas aeruginosa, 99, 18 h): 3.13 µg/mL; MIC ([13]; K12ML1629, 37°C, 18 hours): 1.56 µg/mL; MIC ([19]; 22NO.3038, 37°C, 18 hours): 1.56 µg/mL; MIC ([23]; Corynebacterium bovis, 1810, 37°C, 18 hours): 0.78 µg/mL; MIC ([25]; 37°C, 18 hours): 1.56 µg/mL; MIC [27]: < 0.2 µg/mL; MIC [28]: 0.39 µg/mL; MIC [29]: < 0.2 µg/mL; MIC [30]: 1.56 µg/mL; MIC [31]: 3.13 µg/mL; MIC [32]: 3.13 µg/mL; MIC [33]: 3.13 µg/mL; MIC [34]: 3.13 µg/mL; MIC [35]: < 0.2 µg/mL; MIC [36]: 3.13 µg/mL
2 | NCC(O)C(=O)N[C@@H]1C[C@H](N)[C@@H](O[C@H]2O[C@H](CN)[C@@H](O)[C@H](O)[C@H]2O)[C@H](O)[C@H]1O[C@H]1O[C@H](CO)[C@@H](O)[C@H](N)[C@H]1O (mixture of isomers) [1-IS-KM, 1-N-DL-isoserylkanamycin] | 0.78 | 0.39 | high antibacterial activity | 0.78 | 0.78 | > 100 | 0.78 | 0.78 | 0.78 | > 200 | 0.39 | < 0.2 | < 0.2 | 0.78 | high antibacterial activity | 0.39 | 1.56 | 0.78 | 3.13 | 3.12 | MIC ([7]; K12ML1410, 18 h): 1.56 µg/mL; MIC ([8]; Pseudomonas aeruginosa, 99, 37°C, 18 hours): 6.25 µg/mL; MIC ([13]; K12ML1629, 18 h): 1.56 µg/mL; MIC ([19]; 22NO.3038, 18 h): 1.56 µg/mL; MIC ([23]; Corynebacterium bovis, 1810, 18 h): 1.56 µg/mL; MIC ([25]; 18 h): 1.56 µg/mL; MIC [27]: 0.2 µg/mL; MIC [37]: 1.56 µg/mL; MIC [28]: 0.78 µg/mL; MIC [29]: < 0.2 µg/mL; MIC [30]: 1.56 µg/mL; MIC [31]: 3.13 µg/mL; MIC [32]: 1.56 µg/mL; MIC [33]: 3.13 µg/mL; MIC [34]: 3.13 µg/mL; MIC [35]: < 0.2 µg/mL; MIC [36]: 3.13 µg/mL
